In brackets after ≈: the same amount, converted by molar mass. Where only a bound is given, the exact number is not on record here.

For test [1], the system named is Enterococcus faecalis ATCC 29212. Put plainly: Minimum Inhibitory Concentration (MIC) in LB media. Type of test: cell-based. Particulars: Enterococcus faecalis, ATCC29212, read-out: Minimum Inhibitory Concentration E. faecalis ATCC 29212. An excerpt:
(§1) The compounds of Formula (I) are of interest due to their potent antibacterial effects. The ability of the invention compounds disclosed herein to achieve an antibacterial effect may be evaluated with regard to their ability to inhibit the growth of bacterial species like Escherichia coli ATCC 25922, Staphylococcus aureus ATCC 29213, Klebsiella pneumoniae ATCC 13883, Acinetobacter baumannii ATCC 19606, Pseudomonas aeruginosa ATCC 27853, Enterococcus faecalis ATCC 29212 and Enterococcus faecalis ATCC 29212 using an assay based on the following Minimum Inhibitory Concentration (MIC) protocol:
(§2) The medium sterility is checked by incubating at 37° C. for a period of 48 h.
(§3) Bacterial cultures that are stored as glycerol stocks at −80° C. are sub cultured on LB agar plates to obtain isolated colonies. A single colony of each strain is cultured in LB broth. The cultures are incubated at 37 C, 200 rpm till they reach an optical density (OD at 600 nm) of 0.8 to 1. […] Test compounds are dissolved in dimethyl sulfoxide (DMSO) to a stock concentration of 4 mg/ml. A twofold dilution series of this DMSO stock is prepared in a 96 well V bottom microtitre plate from rows A to H. A 3 μL volume of these dilutions are transferred to a 96-well flat bottom microtitre assay plate. Controls to monitor the effects of DMSO and media sterility are included. Each well is inoculated with 150 μL of the above diluted culture. The plates are incubated at 37° C. overnight in a humidified incubator. The following morning, the plates are read using a Spectrophotometer at 600 nm wavelength. […] The antibacterial activity (MIC) determined against representative Gram positive (S. aureus, E. faecalis) and Gram negative (E.coli, -P. aeruginosa and A. baumannii) pathogen were reported Table 1.

The test system of test [2] is Escherichia coli ATCC 25922. Description: Minimum Inhibitory Concentration (MIC) in LB media. The format is cell-based. To be noted: Escherichia coli, ATCC25922, read-out: Minimum Inhibitory Concentration E. coli ATCC 25922.
Text: as §1, §2, §3

Test [3] relates to Klebsiella pneumoniae ATCC 13883. Description: Minimum Inhibitory Concentration (MIC) in LB media. Type of test: cell-based. To be noted: Klebsiella pneumoniae, ATCC13883, read-out: Minimum Inhibitory Concentration K. pneumoniae ATCC 13883.
Text: as §1, §2, §3

The test system of test [4] is Pseudomonas aeruginosa ATCC 27853. Put plainly: Minimum Inhibitory Concentration (MIC) in LB media. The format is cell-based. Particulars: Pseudomonas aeruginosa, ATCC27853, read-out: Minimum Inhibitory Concentration P. aeruginosa ATCC 27853.
Text: as §1, §2, §3

The test system of test [5] is Staphylococcus aureus ATCC 29213. Description: Minimum Inhibitory Concentration (MIC) in LB media. The format is cell-based. To be noted: Staphylococcus aureus, ATCC29213, read-out: Minimum Inhibitory Concentration S. aureus ATCC 29213.
Text: as §1, §2, §3

Test [6] concerns Acinetobacter baumannii ATCC 19606. Put plainly: Minimum Inhibitory Concentration (MIC) in LB media. The format is cell-based. Particulars: Acinetobacter baumannii, ATCC19606.
Description: Bacterial cultures that are stored as glycerol stocks at −80° C. are sub cultured on LB agar plates to obtain isolated colonies. A single colony of each strain is cultured in LB broth. […] Test compounds are dissolved in dimethyl sulfoxide (DMSO) to a stock concentration of 4 mg/ml. A twofold dilution series of this DMSO stock is prepared in a 96 well V bottom microtitre plate from rows A to H. A 3 μL volume of these dilutions are transferred to a 96-well flat bottom microtitre assay plate. Controls to monitor the effects of DMSO and media sterility are included. Each well is inoculated with 150 μL of the above diluted culture. The plates are incubated at 37° C. overnight in a humidified incubator. The following morning, the plates are read using a Spectrophotometer at 600 nm wavelength.
Test [7] has as its target T1, human ether a go-go related gene (hERG) K+ channel (Homo sapiens, UniProt Q12809).
T1 construct: Chinese Hamster Ovary cell line stably expressing the full-length hERG potassium channel; expressed in transfected cells
Description: hERG inhibition assay, QPatch HTX automated electrophysiology. To be noted: CHO cell line stably expressing hERG, whole-cell patch clamp, maximum test concentration 300 μM. Type of test: cell-based. In general terms: The hERG channel carries a current that helps repolarise heart muscle cells.
Description: The compounds were tested for inhibition of the human ether a go-go related gene (hERG) K+ channel using QPatch HTX automated electrophysiology.
Compounds were solubilised to 100 mM in DMSO before dilution in HBPS to 300 μM.
Electrophysiological recordings were made from a Chinese Hamster Ovary cell line stably expressing the full-length hERG potassium channel. Single cell ionic currents were measured in whole-cell patch clamp configuration at room temperature (21-23° C.) using the QPatch HTX platform (Sophion). Intracellular solution contained (mM): 120 KF, 20 KCl, 10 EGTA, 10 HEPES and was buffered to pH 7.3. […] Cells were clamped at a holding potential of −80 mV. […] This sweep was repeated 10 times at 10 s intervals. hERG currents were measured from the tail step and referenced to the holding current. Compounds were then incubated for 2 minutes prior to a second measurement of ion channel current using an identical pulse train.

The target in test [8] is E. coli DNA gyrase (Escherichia coli, UniProt P0AES4+P0AES6). Put plainly: biochemical. Particulars: supercoiling assay.
E. coli DNA gyrase, sequence (P0AES4 whole entry, one chain of several): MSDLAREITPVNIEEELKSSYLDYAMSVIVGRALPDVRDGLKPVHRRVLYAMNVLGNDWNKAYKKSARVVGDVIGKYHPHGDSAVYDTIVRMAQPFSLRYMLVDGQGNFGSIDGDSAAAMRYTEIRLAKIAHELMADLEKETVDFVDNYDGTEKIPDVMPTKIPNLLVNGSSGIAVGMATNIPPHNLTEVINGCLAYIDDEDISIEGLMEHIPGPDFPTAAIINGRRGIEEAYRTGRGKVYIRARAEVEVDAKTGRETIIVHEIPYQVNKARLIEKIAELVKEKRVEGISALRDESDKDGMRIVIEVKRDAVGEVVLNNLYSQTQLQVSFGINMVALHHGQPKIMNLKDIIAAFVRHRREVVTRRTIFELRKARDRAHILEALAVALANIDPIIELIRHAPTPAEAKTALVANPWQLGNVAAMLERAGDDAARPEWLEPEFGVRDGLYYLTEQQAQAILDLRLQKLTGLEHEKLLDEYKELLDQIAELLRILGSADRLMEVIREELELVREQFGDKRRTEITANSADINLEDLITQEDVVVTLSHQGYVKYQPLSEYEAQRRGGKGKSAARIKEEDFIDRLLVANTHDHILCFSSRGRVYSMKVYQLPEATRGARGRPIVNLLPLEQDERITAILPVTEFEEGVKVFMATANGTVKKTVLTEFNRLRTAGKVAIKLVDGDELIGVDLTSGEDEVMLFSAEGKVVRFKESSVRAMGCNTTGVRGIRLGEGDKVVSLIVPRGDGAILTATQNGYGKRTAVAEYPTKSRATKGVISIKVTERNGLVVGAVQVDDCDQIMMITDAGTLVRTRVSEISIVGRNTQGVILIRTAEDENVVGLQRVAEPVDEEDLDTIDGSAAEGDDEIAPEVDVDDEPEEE
Test [9] has as its target E. coli topoisomerase IV (Escherichia coli, UniProt P0AFI2+P20083). Put plainly: biochemical. To be noted: decatenation assay; read-out: E. coli Topo IV IC50.

T1 sequence (Q12809 whole entry): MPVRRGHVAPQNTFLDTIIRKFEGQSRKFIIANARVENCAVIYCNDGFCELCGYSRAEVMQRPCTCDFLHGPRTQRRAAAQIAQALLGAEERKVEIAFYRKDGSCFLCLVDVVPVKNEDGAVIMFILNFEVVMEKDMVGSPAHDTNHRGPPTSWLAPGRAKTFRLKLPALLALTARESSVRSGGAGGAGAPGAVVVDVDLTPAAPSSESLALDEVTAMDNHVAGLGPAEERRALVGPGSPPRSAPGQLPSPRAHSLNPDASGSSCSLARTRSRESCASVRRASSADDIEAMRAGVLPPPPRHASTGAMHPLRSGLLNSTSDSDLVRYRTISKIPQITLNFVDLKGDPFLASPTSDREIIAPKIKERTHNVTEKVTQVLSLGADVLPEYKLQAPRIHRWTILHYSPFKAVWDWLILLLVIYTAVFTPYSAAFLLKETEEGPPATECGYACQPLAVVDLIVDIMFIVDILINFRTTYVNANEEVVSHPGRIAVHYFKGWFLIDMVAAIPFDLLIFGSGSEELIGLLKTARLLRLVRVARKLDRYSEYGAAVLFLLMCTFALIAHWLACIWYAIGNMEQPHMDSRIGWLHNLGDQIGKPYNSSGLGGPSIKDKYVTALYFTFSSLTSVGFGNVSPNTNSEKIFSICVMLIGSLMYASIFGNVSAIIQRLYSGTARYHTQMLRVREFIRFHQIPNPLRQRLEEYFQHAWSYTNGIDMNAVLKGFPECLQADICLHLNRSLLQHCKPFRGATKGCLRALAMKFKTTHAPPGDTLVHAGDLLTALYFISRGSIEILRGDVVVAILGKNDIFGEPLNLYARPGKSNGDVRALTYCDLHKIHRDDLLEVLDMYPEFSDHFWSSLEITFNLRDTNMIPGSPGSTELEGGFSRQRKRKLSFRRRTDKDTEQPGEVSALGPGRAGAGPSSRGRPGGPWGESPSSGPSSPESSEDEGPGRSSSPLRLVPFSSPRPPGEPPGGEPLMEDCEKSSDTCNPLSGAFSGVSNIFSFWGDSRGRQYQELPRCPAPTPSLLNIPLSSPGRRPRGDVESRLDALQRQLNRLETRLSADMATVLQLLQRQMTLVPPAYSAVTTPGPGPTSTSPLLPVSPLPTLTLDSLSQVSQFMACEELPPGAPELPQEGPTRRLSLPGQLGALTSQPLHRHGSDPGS
E. coli topoisomerase IV, sequence (P20083 whole entry): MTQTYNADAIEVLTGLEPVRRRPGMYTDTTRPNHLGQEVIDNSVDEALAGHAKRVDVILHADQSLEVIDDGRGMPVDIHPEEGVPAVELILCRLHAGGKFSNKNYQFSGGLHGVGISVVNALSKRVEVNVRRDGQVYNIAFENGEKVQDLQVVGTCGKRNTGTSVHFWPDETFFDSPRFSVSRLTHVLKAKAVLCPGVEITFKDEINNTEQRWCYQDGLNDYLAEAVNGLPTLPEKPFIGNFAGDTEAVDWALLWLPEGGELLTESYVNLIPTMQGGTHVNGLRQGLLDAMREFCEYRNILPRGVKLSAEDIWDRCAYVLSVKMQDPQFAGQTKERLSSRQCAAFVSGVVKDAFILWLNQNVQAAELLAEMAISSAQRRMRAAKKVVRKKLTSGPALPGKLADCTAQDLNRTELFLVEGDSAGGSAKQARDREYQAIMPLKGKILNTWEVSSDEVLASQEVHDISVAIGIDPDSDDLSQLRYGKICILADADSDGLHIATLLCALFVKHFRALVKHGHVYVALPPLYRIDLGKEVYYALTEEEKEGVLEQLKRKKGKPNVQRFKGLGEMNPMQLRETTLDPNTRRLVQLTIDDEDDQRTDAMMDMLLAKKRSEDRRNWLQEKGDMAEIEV
E. coli topoisomerase IV, sequence (P0AFI2 whole entry): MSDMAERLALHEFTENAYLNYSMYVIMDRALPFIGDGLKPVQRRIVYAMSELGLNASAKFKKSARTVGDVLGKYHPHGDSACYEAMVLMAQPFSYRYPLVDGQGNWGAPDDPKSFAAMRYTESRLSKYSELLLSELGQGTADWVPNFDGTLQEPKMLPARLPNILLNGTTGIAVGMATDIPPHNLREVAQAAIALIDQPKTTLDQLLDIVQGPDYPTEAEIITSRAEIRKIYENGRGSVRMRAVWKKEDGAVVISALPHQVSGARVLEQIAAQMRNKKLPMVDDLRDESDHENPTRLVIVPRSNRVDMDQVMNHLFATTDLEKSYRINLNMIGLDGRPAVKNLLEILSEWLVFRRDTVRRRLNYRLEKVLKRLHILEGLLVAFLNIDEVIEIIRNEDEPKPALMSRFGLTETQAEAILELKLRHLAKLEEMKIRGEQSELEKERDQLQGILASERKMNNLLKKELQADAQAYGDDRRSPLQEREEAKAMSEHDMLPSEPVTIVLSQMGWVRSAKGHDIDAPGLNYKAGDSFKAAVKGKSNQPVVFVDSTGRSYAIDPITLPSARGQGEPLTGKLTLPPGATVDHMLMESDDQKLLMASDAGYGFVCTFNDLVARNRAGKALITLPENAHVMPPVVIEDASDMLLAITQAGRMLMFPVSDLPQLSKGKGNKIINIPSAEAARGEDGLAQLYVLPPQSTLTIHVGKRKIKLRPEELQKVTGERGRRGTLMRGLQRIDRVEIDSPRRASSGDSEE

For `CN1C(=O)CCc2ccc(F)c(CCNC[C@@H]3CN(c4ccc5c(n4)NC(=O)CO5)C(=O)O3)c21` [Example 3, (R)-6-(5-(((2-(7-fluoro-1-methyl-2-oxo-1,2,3,4-tetrahydroquinolin-8-yl)ethyl)amino)methyl)-2-oxooxazolidin-3-yl)-2H-pyrido[3,2-b][1,4]oxazin-3(4H)-one], the MIC came to 0.25 µg/mL (≈ 0.533 µM) in test [1]; 0.5 µg/mL (≈ 1.07 µM) in test [2]; 2 µg/mL (≈ 4.26 µM) in [3]; 16 µg/mL (≈ 34.1 µM) in test [4]; 0.5 µg/mL (≈ 1.07 µM) in test [5]; 1 µg/mL (≈ 2.13 µM) in [6]. For the same compound, the IC50 (as a rule, the concentration that gives 50% inhibition) in test [7] turned out to be 12000 nM.
`O=C1COc2ncc(N3C[C@H](CNCCc4c(F)ccc5ccc(=O)n(CCO)c45)OC3=O)nc2N1` [Example 20, (S)-6-(5-(((2-(7-fluoro-1-(2-hydroxyethyl)-2-oxo-1,2-dihydroquinolin-8-yl)ethyl)amino)methyl)-2-oxooxazolidin-3-yl)-2H-pyrazino[2,3-b][1,4]oxazin-3(4H)-one]: the MIC in [1] amounted to 0.125 µg/mL (≈ 0.251 µM); in [2], 0.125 µg/mL (≈ 0.251 µM); in test [3] it was 0.5 µg/mL (≈ 1 µM); in test [4], 0.5 µg/mL (≈ 1 µM); in [5], 0.03 µg/mL (≈ 0.0602 µM); in [6] it was 2 µg/mL (≈ 4.01 µM). Besides, the values for the half-inhibitory concentration (IC50) in test [8], in [9] and in [7] were 10.6 nM, 90 nM and greater than 300000 nM, respectively.
In the case of `Cn1c(=O)ccc2ccc(F)c(CCCNC[C@@H]3CN(c4cnc5c(n4)NC(=O)CO5)C(=O)O3)c21` [Example 23, (R)-6-(5-(((3-(7-fluoro-1-methyl-2-oxo-1,2-dihydroquinolin-8-yl)propyl)amino)methyl)-2-oxooxazolidin-3-yl)-2H-pyrazino[2,3-b][1,4]oxazin-3(4H)-one], the MIC in [1] stood at 0.06 µg/mL (≈ 0.124 µM); in [2], 0.03 µg/mL (≈ 0.0622 µM); in test [3], 0.03 µg/mL (≈ 0.0622 µM); in test [4] it was 0.25 µg/mL (≈ 0.518 µM); in test [5] it was 0.015 µg/mL (≈ 0.0311 µM); in [6] it was 0.015 µg/mL (≈ 0.0311 µM). Also, the figures for the half-maximal inhibitory concentration (IC50) in test [8], in test [9] and in [7] were 4.9 nM, 37 nM and 35000 nM, respectively.
For the compound `Cn1c(=O)cc(CN)c2ccc(F)c(CCNC[C@H]3CN(c4ccc5c(n4)NC(=O)CO5)C(=O)O3)c21` [Example 13, (S)-6-(5-(((2-(4-(aminomethyl)-7-fluoro-1-methyl-2-oxo-1,2-dihydroquinolin-8-yl)ethyl)amino)methyl)-2-oxooxazolidin-3-yl)-2H-pyrido[3,2-b][1,4]oxazin-3(4H)-one], the MIC was 0.5 µg/mL (≈ 1.01 µM) in [1]; 0.125 µg/mL (≈ 0.252 µM) in test [2]; 0.25 µg/mL (≈ 0.504 µM) in test [3]; 0.5 µg/mL (≈ 1.01 µM) in test [4]; 0.25 µg/mL (≈ 0.504 µM) in [5]; 1 µg/mL (≈ 2.01 µM) in [6]. Also, the 50% inhibitory concentration (IC50) is 20 nM in test [8], 32 nM in test [9] and greater than 300000 nM in test [7].
Consider `Cn1c(=O)ccc2ccc(F)c(CCNC[C@@H]3CN(c4cnc5c(n4)NC(=O)CO5)C(=O)O3)c21` [Example 14, (R)-6-(5-(((2-(7-fluoro-1-methyl-2-oxo-1,2-dihydroquinolin-8-yl)ethyl)amino)methyl)-2-oxooxazolidin-3-yl)-2H-pyrazino[2,3-b][1,4]oxazin-3(4H)-one], for which the MIC in test [1] is 0.06 µg/mL (≈ 0.128 µM); in test [2], 0.06 µg/mL (≈ 0.128 µM); in [3] it was 0.06 µg/mL (≈ 0.128 µM); in test [4], 0.5 µg/mL (≈ 1.07 µM); in test [5] it was no more than 0.015 µg/mL; in test [6] it was 0.25 µg/mL (≈ 0.534 µM). The IC50 in [8] is 13 nM; in test [9], 52 nM; in [7], 41000 nM.
Consider `Cn1c(=O)cnc2ccc(F)c(CCNC[C@@H]3CN(c4ccc5c(n4)NC(=O)CO5)C(=O)O3)c21` [Example 5, (R)-6-(5-(((2-(6-fluoro-4-methyl-3-oxo-3,4-dihydroquinoxalin-5-yl)ethyl)amino)methyl)-2-oxooxazolidin-3-yl)-2H-pyrido[3,2-b][1,4]oxazin-3(4H)-one], for which the MIC came to 0.25 µg/mL (≈ 0.534 µM) in test [1]; 0.06 µg/mL (≈ 0.128 µM) in [2]; 0.125 µg/mL (≈ 0.267 µM) in test [3]; 1 µg/mL (≈ 2.13 µM) in test [4]; 0.015 µg/mL (≈ 0.032 µM) in [5]; 0.03 µg/mL (≈ 0.064 µM) in test [6]. In test [7], this compound came in with an IC50 of 14000 nM.
On to `Cn1c(=O)cnc2ccc(F)c(CCNC[C@H]3CN(c4ccc5c(n4)NC(=O)CO5)C(=O)O3)c21` [Example 4, (S)-6-(5-(((2-(6-fluoro-4-methyl-3-oxo-3,4-dihydroquinoxalin-5-yl)ethyl)amino)methyl)-2-oxooxazolidin-3-yl)-2H-pyrido[3,2-b][1,4]oxazin-3(4H)-one], for which the MIC in test [1] was 0.06 µg/mL (≈ 0.128 µM); in [2] it was 0.03 µg/mL (≈ 0.064 µM); in test [3] it was 0.03 µg/mL (≈ 0.064 µM); in [4], 0.25 µg/mL (≈ 0.534 µM); in test [5], no more than 0.015 µg/mL; in test [6], no more than 0.015 µg/mL. Moreover, the IC50 in [8] came to 7 nM; in test [9], 93 nM.
In the case of `Cn1c(=O)cc(CO)c2ccc(F)c(CCNC[C@H]3CN(c4ccc5c(n4)NC(=O)CO5)C(=O)O3)c21` [Example 12, (S)-6-(5-(((2-(7-fluoro-4-(hydroxymethyl)-1-methyl-2-oxo-1,2-dihydroquinolin-8-yl)ethyl)amino)methyl)-2-oxooxazolidin-3-yl)-2H-pyrido[3,2-b][1,4]oxazin-3(4H)-one], the MIC in test [1] worked out at 0.5 µg/mL (≈ 1.01 µM); in [2] it was 0.25 µg/mL (≈ 0.503 µM); in [3] it was 0.5 µg/mL (≈ 1.01 µM); in test [4], 1 µg/mL (≈ 2.01 µM); in test [5], 0.25 µg/mL (≈ 0.503 µM); in test [6] it was 1 µg/mL (≈ 2.01 µM). For the same compound, the results for the IC50 in test [8] and in test [9] were less than 100 nM and 176 nM, respectively.
For `Cn1c(=O)ccc2ccc(F)c(CCNCC[C@H]3CN(c4cnc5c(n4)NC(=O)CO5)C(=O)O3)c21` (single isomer, unassigned) [Example 24], the MIC in [1] came out at 0.125 µg/mL (≈ 0.259 µM); in test [2], 0.06 µg/mL (≈ 0.124 µM); in test [3], 0.125 µg/mL (≈ 0.259 µM); in [4], 0.25 µg/mL (≈ 0.518 µM); in test [5], 0.125 µg/mL (≈ 0.259 µM); in [6], 0.5 µg/mL (≈ 1.04 µM). Also, the half-inhibitory concentration (IC50) in test [8] is 25 nM; in test [9] it was 123 nM; in test [7], greater than 300000 nM.
On to `O=C1COc2ccc(N3C[C@H](CNCCc4c(F)ccc5ncc(=O)n(CCO)c45)OC3=O)nc2N1` [Example 9, (S)-6-(5-(((2-(6-fluoro-4-(2-hydroxyethyl)-3-oxo-3,4-dihydroquinoxalin-5-yl)ethyl)amino)methyl)-2-oxooxazolidin-3-yl)-2H-pyrido[3,2-b][1,4]oxazin-3(4H)-one], for which the MIC in [1] is 0.125 µg/mL (≈ 0.251 µM); in test [2] it was 0.06 µg/mL (≈ 0.12 µM); in test [3] it was 0.13 µg/mL (≈ 0.261 µM); in test [4], 1 µg/mL (≈ 2.01 µM); in [5] it was 0.03 µg/mL (≈ 0.0602 µM); in [6], 0.06 µg/mL (≈ 0.12 µM). Further, the IC50 in test [8] was 3.2 nM; in test [9] it was 175 nM; in [7] it was 68700 nM.
For `Cn1c(=O)ccc2ccc(F)c(CCNCC[C@@H]3CN(c4cnc5c(n4)NC(=O)CO5)C(=O)O3)c21` (single isomer, unassigned) [Example 25], the MIC stood at 0.5 µg/mL (≈ 1.04 µM) in test [1]; 0.06 µg/mL (≈ 0.124 µM) in [2]; 0.25 µg/mL (≈ 0.518 µM) in [3]; 0.25 µg/mL (≈ 0.518 µM) in test [4]; 0.06 µg/mL (≈ 0.124 µM) in test [5]; 0.5 µg/mL (≈ 1.04 µM) in test [6]. Further, the IC50 in test [8] was determined as 17 nM; in test [9] it was 21 nM; in test [7], 101000 nM.
Take `Cn1c(=O)ccc2ccc(F)c(CCNC[C@H]3CN(c4ccc5c(n4)NC(=O)CO5)C(=O)O3)c21` [Example 8, (S)-6-(5-(((2-(7-fluoro-1-methyl-2-oxo-1,2-dihydroquinolin-8-yl)ethyl)amino)methyl)-2-oxooxazolidin-3-yl)-2H-pyrido[3,2-b][1,4]oxazin-3(4H)-one]: the MIC in [1] is 0.06 µg/mL (≈ 0.128 µM); in test [2], 0.03 µg/mL (≈ 0.0642 µM); in test [3], 0.03 µg/mL (≈ 0.0642 µM); in [4], 0.25 µg/mL (≈ 0.535 µM); in [5], no more than 0.015 µg/mL; in test [6], no more than 0.015 µg/mL. In addition, half-maximal inhibition in test [7] (IC50) was put at 17000 nM.
